From patent publication US5861477A (priority 1996, dated 1999)
“Also recorded” adds a separate entry of the source. Where two headings read alike, the source gives them in different places. Bridges are numbered along the chain shown (N, C = ends). Where no end group is shown, it is not given here.

Columns and labels:
[1] = tested on: TrPepz; experiment: TrPepz (synthetic cyclic peptide catalyst mimicking the active site of trypsin); conditions: up to 3 hrs
[2] = Tryptic activity: hydrolysis of TAME; assay type: biochemical; conditions: for Km / kcat / kcat /Km: hydrolysis of TAME, pH 8.0 and 25° C.
Method: Tryptic activity. Measurement of tryptic activity was done in 0.046M Tris-HCl buffer, pH 8.0, containing 0.0115M CaCl2 as described (Hummel, B. C. W. (1959), id) using TAME as the substrate. For the assays, 8.4×10^-4 μmoles of […] or 1.6 c 10^-3 μmoles of TrPepz were allowed to hydrolyze different amounts of substrate at 25° C. in a total reaction volume of 1.0 ml. […] Kinetic constants for hydrolysis of BTEE and TAME were determined from the linear plots of 1/initial velocity (Vi in μmoles/min) versus 1/substrate concentration as described (Lineweaver, H. and Burk, D. (1934) J. Amer. Chem. Soc. 56, 658).
To TAME solutions (1 ml containing different amounts of substrate), an aliquot (10 μl) of TrPepz, or negative control peptide solutions (containing 1-10 μg/10 μl) was added, mixed immediately and the increase of absorbance at 247 nm was measured at 37° C. (or at room temperature).
TrPepz solutions were always made immediately before use. Although TrPepz has no potential tryptic cleavage points, it lost activity on standing in solution at 4° C. […] TrPepz will not act on chromogenic substrates--it was inhibited by p-nitro analine (and probably is inhibited by other aromatic amines). After mixing TrPepz with substrate, there was a lag of 2-5 minutes (depending on pepzyme/substrate ratio) before any change in A247 was observed. In the early stages of the purification, the activity was always monitored over a period of several hours. Negative controls (containing unrelated peptides in amounts similar to those of TrPepz in the test samples) were also monitored at the same time because the background absorbance will increase and the test samples had to be corrected for this background. As the sample's purity improved, maximum A247 was achieved more quickly.
Inhibition of Enzymatic Activity. The effects of inhibitors or disulfide bond reduction on enzymatic activities were done as described above except that the enzymes were pre-mixed (3 hrs, 25° C.) with 10 molar excess of inhibitor (or DTT) prior to addition to the substrate (140-150 molar excess relative to the catalyst). Activities were monitored spectrophotometrically as above and were compared to uninhibited controls.
In addition, test were performed which compared the activity of the two proteases under differing temperature parameters.

[3] = Loss of pepzyme activity on storage in solution and on freezing and thawing; assay type: physicochemical
Method: (§1) ChPepz solution was made in 10^-3 N HCl, since it will not digest itself in this solvent. Solutions of ChPepz were always made immediately before use. […] After mixing ChPepz with substrate (BTEE), there was typically a lag of 2-5 min (depending on pepzyme/substrate ratio) before any change in A256 was observed. However, in the early stages of the purification, the activity needed to be monitored over a period of several hours. It was important to ensure that negative controls (containing unrelated peptides in amounts similar to those of ChPepz in the test samples) were also monitored at the same time because the background absorbance will increase and the test samples had to be corrected for this background. As the sample's purity improves, maximum A256 was achieved more quickly. See, e.g., Atassi, M. Z. in Immunochemistry of Proteins, ed. M. Z. Atassi, Vol. 2, pp. 77-176, Plenum, New York, N.Y. (1977); King, D. S., et al. Int. J. Pept. Prot. Res. 36: 255-266 (1990).
TrPepz solutions were always made immediately before use. […] In the early stages of the purification, the activity was always monitored over a period of several hours. Negative controls (containing unrelated peptides in amounts similar to those of TrPepz in the test samples) were also monitored at the same time because the background absorbance will increase and the test samples had to be corrected for this background. […]

[4] = tested on: model peptides (SEQ ID NO:7-10); experiment: Action of TrPepz on model peptides; assay type: biochemical
[5] = Chymotryptic activity: hydrolysis of BTEE; assay type: biochemical; conditions: in words
Method: Chymotryptic activity. The catalytic activity of αCT and CHPepz was determined by hydrolysis of BTEE in 0.08M Tris buffer, pH 7.8 containing 0.01M CaCl2 as described (Hummel, B. C. W. (1959) Can. J. Biochem. Physiol. 37, 1393-1399). Assays were done at 25° C. using 8.06×10^-4 μmoles of αCT or 7.49×10^-4 μmoles of ChPepz and different substrate concentrations (from 3 to 6 mM) in a total reaction volume of 1.0 ml. The change of absorbance at 256 nm was monitored on a recording spectrophotometer against a reference cuvette containing 1 ml of the same concentration of BTEE, but without αCT or ChPepz.
1.0 ml of substrate (BTEE) was mixed with solutions (10 μl aliquots) of ChPepz, or negative control peptides (containing 1-10 μg/10 μl) or αCT and activity was monitored by increase in absorbance at 256 nm at 37° C. (or at room temperature).
as §1, with “M. Z. Atassi, Vol. 2, pp. 77-176, Plenum, New York, N.Y. (1977); King, D. S., et al. Int. J. Pept. Prot. Res. 36: 255-266 (1990).” left out
Tryptic activity. […] Kinetic constants for hydrolysis of BTEE and TAME were determined from the linear plots of 1/initial velocity (Vi in μmoles/min) versus 1/substrate concentration as described (Lineweaver, H. and Burk, D. (1934) J. Amer. Chem. Soc. 56, 658).
Inhibition of Enzymatic Activity. […] Activities were monitored spectrophotometrically as above and were compared to uninhibited controls. […]

[6] = tested on: myoglobin and casein; experiment: Hydrolysis of proteins by enzymes or peptide enzyme catalysts (peptide maps); assay type: biochemical, sperm-whale (myoglobin), bovine (casein)
Method: Hydrolysis of Proteins by Enzymes or Peptide Enzyme Catalysts. Hydrolyses were done at 37° C. on aliquots (200 μl) containing 1 mg of myoglobin (5.6×10-2 μmoles) or casein (4.2×10^-2 μmoles) in 0.1M triethylamine-acetic acid buffer, pH 8.0 with 51 μg of αCT (2.06×10^-3 μmoles) and 2.9 μg of ChPepz (1.1×10^-3 μmoles) for 31/2 hrs or with 49 μg trypsin (2.06×10^-3 μmoles) and 5.0 μg TrPepz (1.87×10^-3 μmoles) for 8 hrs. The samples were then acidified (to pH 3.0) with 0.1M HCl freeze-dried and redissolved in 100 μl of H2 O at pH 3.0, and the entire sample was applied as a single spot to Whatman No. 3MM paper and subjected, in the first dimension, to ascending chromatography in n-butanol-acetic acid-water (4:1:5, vol/vol) followed by high voltage electrophoresis (3000 volts, 55 min), in the second dimension, in pyridine-acetic acid-water (1:10:289, vol/vol), pH 3.65, as described (Atassi, M. Z. and Saplin, B. J. (1968) Biochemistry 7, 688-698). The papers were then dried, steamed and stained with 0.2% ninhydrin in ethanol and the color was allowed to develop at room temperature. The papers were photographed 48 hrs after staining.

[7] = TAME, pH 8.0 and 25° C., cited from earlier work

## DNYRGYSLG
[1]
  cleaved bond: Arg-Gly

## QLEPSTSSAVPLIGKG
[1]
  cleaved bond: Lys-Gly

## cyclo(-S-cystinyl-glycyl-tyrosyl-histidyl-phenylalanyl-glycyl-glycyl-seryl- aspartyl-glycyl-glutamyl-glycyl-seryl-aspartyl-glycyl-glycyl-valyl-seryl-tryptophanyl-glycyl-leucyl-glycyl-glycyl-aspartyl-glycyl-alanyl-alanyl-histidyl-cystinyl-S) (CGYHFGGSDGEGSDGGVSWGLGGDGAAHC; disulfide 1-29) [TrPepz]
[2]; 10 molar excess of DTT
  activity on TAME after reduction of the disulfide bond (cyclic structure): zero activity; also recorded: fully inactivated; also recorded: completely lost
[2]; 10 molar excess of TPCK
  activity on TAME in presence of TPCK: the two curves superimposed; also recorded: not by TPCK; also recorded: not affected
[2]; 10 molar excess of inhibitor
  activity on TAME in presence of BPTI: zero activity; also recorded: completely inhibited; also recorded: inhibited entirely
  activity on TAME in presence of DIFP: zero activity; also recorded: fully inactivated; also recorded: inhibited entirely; also recorded: completely inhibited
  activity on TAME in presence of PMSF: zero activity; also recorded: fully inactivated; also recorded: inhibited entirely; also recorded: completely inhibited
  activity on TAME in presence of human α1 -antitrypsin: zero activity; also recorded: completely inhibited; also recorded: inhibited entirely
  activity on TAME in presence of soybean trypsin inhibitor: completely inhibited; also recorded: inhibited entirely
[2]; Temp. 10
  % Activity of Native Enzyme at 35° C.: 7.4%
[2]; Temp. 35
  % Activity of Native Enzyme at 35° C.: approx. 40%
[2]; Temp. 48
  % Activity of Native Enzyme at 35° C.: approx. 50%
[2]; after mixing with substrate, depends on pepzyme/substrate ratio
  lag before any change in A247: 2 to 5 min
[2]
  Km: 2420 ± 90 µM
  kcat: 85 ± 2.6 sec.^-1
  kcat /Km: 35000 M⁻¹ s⁻¹
[2]; relative to trypsin
  rate of TAME hydrolysis relative to the rate obtained with the enzyme itself: about 40%
[2]; will not act on chromogenic substrates
  inhibition by p-nitro analine: inhibited
[3]
  freezing and thawing cycles to complete loss of activity: 5 cycles
[3]; 4° C.
  time to complete loss of activity on storage in solution: two
[4]; 3 hrs, molar ratio of substrate/TrPepz, 1:60
  hydrolysis of the Lys-Gly bond of peptide SEQ ID NO:7: over 95%
[4]; no other products
  cleavage of lysozyme sequences SEQ ID NO:8, 9, 10 at the C-bond of lysine and arginine: completely cleaved
[5]
  hydrolytic activity on BTEE: zero activity; also recorded: no effect; also recorded: not hydrolyzed; also recorded: not hydrolysed
[6]; 37° C., pH 8.0, 3 1/2 hrs (ChPepz) or 8 hrs (TrPepz)
  hydrolysis of myoglobin and casein, peptides compared with those of the respective enzyme: essentially the same as the pattern of the respective protein obtained by tryptic hydrolysis
[6]; protein substrates
  proteolytic activity in presence of DIFP: completely inhibited
  proteolytic activity in presence of PMSF: completely inhibited
  proteolytic activity in presence of TPCK: no effect
[6]; yields of lysine and arginine in hydrolysates
  efficiency at hydrolyzing Lys-Lys, Lys-Lys-Lys, Arg-Lys and Lys-Arg bonds compared with trypsin: more efficient than trypsin

B1: Trypsin: native bovine trypsin (TPCK-trypsin, Worthington), positive control (protein, UniProt P00760 24-246, looked up)
Serine protease 1: IVGGYTCGANTVPYQVSLNSGYHFCGGSLINSQWVVSAAHCYKSGIQVRLGEDNINVVEGNEQFISASKSIVHPSYNSNTLNNDIMLIKLKSAASLNSRVASISLPTSCASAGTQCLISGWGNTKSSGTSYPDVLKCLKAPILSDSSCKSAYPGQITSNMFCAGYLEGGKDSCQGDSGGPVVCSGKLQGIVSWGSGCAQKNKPGVYTKVCNYVSWIKQTIASN
modifications: TPCK-treated
notes: native bovine trypsin (TPCK-trypsin, Worthington), positive control
[7]; Lorand et al. 1961, read-out: Km reported value
  Km: 2760 µM
[7]; Martin et al. 1959
  kcat reported value: 187 s⁻¹
[2]; Temp. 10
  % Activity of Native Enzyme at 35° C.: 4.5%
[2]; Temp. 35
  % Activity of Native Enzyme at 35° C.: 100%
[2]; Temp. 48
  % Activity of Native Enzyme at 35° C.: 67%
[2]
  Km: 2560 ± 160 µM
  kcat: 221 ± 9.7 sec.^-1
  kcat /Km: 86000 M⁻¹ s⁻¹
[2]; listed as trypsin
  kcat: 221 sec.^-1
[2]; in words
  hydrolytic activity on TAME: hydrolyzes
[5]
  hydrolytic activity on BTEE: zero activity; also recorded: does not hydrolyze
[5]; listed as trypsin
  hydrolytic activity on BTEE: not hydrolysed
